Laboratory results as given in US10588919B2, “Materials and methods for the treatment of vascular disease” (THE UNIVERSITY COURT OF THE UNIVERSITY OF EDINBURGH, priority 2015, dated 2020).

Experiments:
Assay type in all cases: cell-based, human
[1] = test system: LncRNA 2 (SMILR) expression; assay: MEKK1 and p38 inhibitor studies: LncRNA 2 (SMILR) expression by qRT-PCR in IL1α/PDGF-stimulated HSVSMC; conditions: 24 h; for LncRNA 2 expression in the presence of IL1 and PDGF: HSVSMC, 60 minute pre-treatment, 10, 15 and 20 μM AZD6244, 5, 10 and 20 uM SB 203580; for induction of SMILR expression in response to PDGF and IL1α: VSMC, 60 min pre-treatment, AZD6244 5, 10 or 15 μM, SB203580
Description: For gene expression analysis, cDNA for mRNA analysis was obtained from total RNA using the Multiscribe Reverse Transcriptase (Life technologies, UK). qRT-PCR was performed using Power SYBR green (life technologies, UK) with custom PCR primers (Eurofins, MWG, Ebersberg, Germany) the specificity of these primers was confirmed by performing a melting curve and running their PCR produce on a gel (Table 1-primer sequences). Ubiquitin C (UBC) was selected as housekeeping gene due to its stability across all groups studied. Fold-changes were calculated using the 2^-ΔΔCt method (Livak and Schmittgen 2001-http://www.ncbi.nlm.nih.gov/pubmed/11846609; analysis of relative gene expression data using real-time quantitative PCR and the 2(-Delta Delta C(T)) method. Methods 2001;25;402-8). For inhibitor studies, […] were plated at 1×10^5 cells in 6 well plates and quiesced for 48 h. […] Cells were then stimulated with either 0.2% media or a combination of IL1α and PDGF for 24 hours for RNA quantification or western blot analysis.

[2] = test system: SMILR; assay: RNA-FISH of SMILR transcripts in HSVSMC
Description: Custom RNA-FISH tiled probe sets were generated to all exons of […] FISH utilises “branch tree” technology. Briefly, a target specific probe set, containing 40 oligo probes, hybridises to the target mRNA as 20 oligo pairs. Each oligo pair forms a required platform for assembly of the signal amplification structure (tree) through a series of sequential hybridisation steps. Each fully assembled structure, covers a space of 40-50 nt of the target RNA, and has the capacity for 400-fold signal amplification. Therefore, a typical RNA probe set (containing 20 oligo pairs) has the capacity to generate 8,000-fold signal amplification. Due to this technology the company confirms single-molecule RNA sensitivity, thus each fluorescent signal corresponds to an individual lncRNA molecule. Control SNORD3 and UBC were used as housekeepers to determine spatial location of LncRNA2 (Panomics, Affymetrix). RNA-FISH was performed according to manufacturer's instructions (ViewRNATM cell FISH) with minor modifications for both cell and tissue experiments. For cellular analysis […] were grown on 16mm coverslips to 80% confluency, washed in PBS and fixed in 4% paraformaldehyde supplemented with 1% glacial acetic acid. Following detergent QS permeablisation and 1:6000 protease digest coverslips were incubated with a combination of UBC and LncRNA 2 probe sets or UBC. […]

[3] = test system: HSVSMC proliferation; assay: EdU incorporation (proliferation) of HSVSMC stimulated with IL1α/PDGF
[4] = test system: ZHX2; assay: ZHX2 expression by qRT-PCR in HSVSMC; conditions: SMILR knockdown
Description: (§1) For gene expression analysis, cDNA for mRNA analysis was obtained from total RNA using the Multiscribe Reverse Transcriptase (Life technologies, UK). qRT-PCR was performed using Power SYBR green (life technologies, UK) with custom PCR primers (Eurofins, MWG, Ebersberg, Germany) the specificity of these primers was confirmed by performing a melting curve and running their PCR produce on a gel (Table 1—primer sequences). Ubiquitin C (UBC) was selected as housekeeping gene due to its stability across all groups studied. Fold-changes were calculated using the 2^−ΔΔCt method (Livak and Schmittgen 2001—http://www.ncbi.nlm.nih.gov/pubmed/11846609; analysis of relative gene expression data using real-time quantitative PCR and the 2(-Delta Delta C(T)) method. Methods 2001;25;402-8). […] Following the 48 stimulation cells were RNA extracted as described earlier or fixed in 70% ethanol for EdU FACs analysis. EdU incorporation was visualized using Click-iT Alexa Fluor 594 according to the manufacturers protocol (Invitrogen).

[5] = test system: HAS3; assay: HAS3 expression by qRT-PCR in HSVSMC; conditions: SMILR knockdown
Description: as §1

[6] = test system: SMILR (LncRNA 2); assay: dsiRNA-mediated knockdown of SMILR in HSVSMC, qRT-PCR
Description: as §1

[7] = test system: HAS2; assay: HAS2 expression by qRT-PCR in HSVSMC; conditions: SMILR knockdown
Description: as §1

[8] = test system: interferon pathway (OAS1, IRF7); assay: qRT-PCR of interferon response genes OAS1 and IRF7 after dsiRNA; conditions: dsiRNA off target effects
Description: For gene expression analysis, cDNA for mRNA analysis was obtained from total RNA using the Multiscribe Reverse Transcriptase (Life technologies, UK). qRT-PCR was performed using Power SYBR green (life technologies, UK) with custom PCR primers (Eurofins, MWG, Ebersberg, Germany) the specificity of these primers was confirmed by performing a melting curve and running their PCR produce on a gel (Table 1—primer sequences). Ubiquitin C (UBC) was selected as housekeeping gene due to its stability across all groups studied. Fold-changes were calculated using the 2^−ΔΔCt method (Livak and Schmittgen 2001—http://www.ncbi.nlm.nih.gov/pubmed/11846609; analysis of relative gene expression data using real-time quantitative PCR and the 2(-Delta Delta C(T)) method. Methods 2001;25;402-8).

[9] = test system: HAS1; assay: HAS1 expression by qRT-PCR in HSVSMC; conditions: SMILR knockdown
Description: as §1

[10] = test system: HAS2-AS1; assay: HAS2-AS1 expression by qRT-PCR in HSVSMC; conditions: SMILR knockdown
Description: as §1

## C[S+]([O-])c1ccc(-c2nc(-c3ccncc3)c(-c3ccc(F)cc3)[nH]2)cc1 (stereo not shown) [SB 203580]
[1]
  LncRNA 2 expression in the presence of IL1 and PDGF: completely inhibited
  induction of SMILR expression in response to PDGF and IL1α: dose-dependent reduction

## DsiRNA SMILR: Double stranded dicer substrate siRNA targeting LncRNA 2 (SMILR); probably sense SEQ ID NO: 1, antisense SEQ ID NO: 2 (sense CCAUAAUUUACAUGGAUGUU; antisense UUCCAAACAUCCAUGUAAAUUAUGGAA; listed as RNA, chemistry not fully specified)
[2]
  SMILR transcripts (RNA-FISH): decrease
[3]; SMILR knock down with dsiRNA, IL1/PDGF 48 h, vs Si Control
  VSMC proliferation reduced (EdU incorporation): 56±15%
[3]; dsiRNA mediated knockdown of LncRNA 2
  SMC proliferation following stimulation with IL1/PDGF (EdU incorporation): inhibited
[4]
  ZHX2 gene expression: no change
[5]
  HAS3 expression: no effect
[6]; 25 nM dsiRNA, IL1α/PDGF 48 h
  decrease in SMILR expression compared to dsiControl: 75±24%
[6]; IL1/PDGF, qRT-PCR
  LncRNA 2 (SMILR) expression after dsiRNA transfection: significant decrease
[7]
  HAS2 mRNA levels: significantly inhibits
[7]; listed as SMILR siRNA
  HAS2 mRNA levels: significantly altered
[8]
  effect on the interferon pathway (response genes OAS1 and IRF7): No effect
[9]
  HAS1 expression: no effect
[10]
  HAS2-AS1 lncRNA expression: no change

## Cn1cnc2c(F)c(Nc3ccc(Br)cc3Cl)c(C(=O)NOCCO)cc21 [AZD6244]
[1]
  LncRNA 2 expression in the presence of IL1 and PDGF: completely inhibited
  induction of SMILR expression in response to PDGF and IL1α: prevented the induction
